Test results reported in patent publication US20260132127A1, “NOVEL SPIRO COMPOUND” (MITSUBISHI TANABE PHARMA CORPORATION, priority 2021, published 2026).

Target: T1, human TRH-DE (Homo sapiens, UniProt Q9UKU6)
T1 construct: expressed in transfected cells; host or cells: Expi 293 cells (transient expression), membrane fraction
T1 sequence (Q9UKU6 1-1069): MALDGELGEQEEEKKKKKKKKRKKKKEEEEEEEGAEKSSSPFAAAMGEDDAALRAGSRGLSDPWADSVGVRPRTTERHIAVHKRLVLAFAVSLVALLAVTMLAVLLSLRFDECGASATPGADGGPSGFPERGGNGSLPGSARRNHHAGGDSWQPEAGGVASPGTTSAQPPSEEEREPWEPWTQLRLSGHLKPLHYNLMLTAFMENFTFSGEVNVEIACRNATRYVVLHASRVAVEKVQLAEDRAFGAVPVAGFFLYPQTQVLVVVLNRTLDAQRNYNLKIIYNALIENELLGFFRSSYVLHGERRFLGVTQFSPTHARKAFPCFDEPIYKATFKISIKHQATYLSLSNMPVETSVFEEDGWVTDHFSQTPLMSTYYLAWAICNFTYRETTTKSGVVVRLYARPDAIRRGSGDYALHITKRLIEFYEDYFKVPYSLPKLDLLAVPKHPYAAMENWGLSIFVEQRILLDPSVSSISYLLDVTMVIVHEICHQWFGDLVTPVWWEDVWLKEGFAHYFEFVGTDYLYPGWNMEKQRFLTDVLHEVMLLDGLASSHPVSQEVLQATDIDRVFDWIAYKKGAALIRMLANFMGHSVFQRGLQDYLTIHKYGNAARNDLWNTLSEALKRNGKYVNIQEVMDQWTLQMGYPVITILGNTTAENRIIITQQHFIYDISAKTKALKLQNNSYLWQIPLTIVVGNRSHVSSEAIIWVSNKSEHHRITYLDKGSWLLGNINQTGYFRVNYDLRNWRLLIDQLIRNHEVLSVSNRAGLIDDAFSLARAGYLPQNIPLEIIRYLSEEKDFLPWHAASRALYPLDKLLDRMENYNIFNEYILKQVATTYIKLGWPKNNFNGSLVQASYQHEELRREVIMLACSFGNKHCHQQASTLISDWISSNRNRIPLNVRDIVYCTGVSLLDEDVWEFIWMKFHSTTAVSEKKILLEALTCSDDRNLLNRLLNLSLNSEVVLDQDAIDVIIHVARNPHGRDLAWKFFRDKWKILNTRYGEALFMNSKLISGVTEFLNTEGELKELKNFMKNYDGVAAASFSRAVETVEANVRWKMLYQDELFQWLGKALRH
Assay: TRH-DE inhibition test (RapidFire MS measurement of product Cyclo (His-Pro))
Type: biochemical
Details: membrane fraction of Expi 293 cells expressing human TRH-DE; 10 μM TRH substrate; room temperature, 2 hours; 16-point concentration test
Procedure, shortened: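 Membrane fraction from Expi 293 cells transiently expressing human TRH-DE, at 4 μg/ml in phosphate buffer pH 7.4 with 200 μM bacitracin, reacted with compound and 10 μM substrate for 2 h at room temperature. Cyclo(His-Pro) measured by RapidFire MS against an isotope internal standard. IC50 from 16-point curves.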

Structure (SMILES) | IC50
C[C@@H]1COCC(=O)N1C1CC2(C1)CN(S(=O)(=O)c1ccccc1F)C2 [Example 458, (5R)-4-[2-(2-fluorophenyl)sulfonyl-2-azaspiro[3.3]heptan-6-yl]-5-methylmorpholin-3-one] | 280 nM
C[C@@H]1COc2nc(C3(C(F)(F)F)CC3)sc2C(=O)N1C1CC2(C1)CN(S(=O)(=O)c1ccccc1F)C2 [Example 183] | 5 nM
CC1c2cnccc2C(=O)N1C1CC2(C1)CN(S(=O)(=O)c1ccccc1F)C2 (racemic) [Example 295] | 355 nM
Cc1c2c(nn1C)OC[C@@H](C)N(C1CC3(C1)CN(S(=O)(=O)c1ccccc1F)C3)C2=O [Example 211] | 13 nM
COc1ncc2c(n1)OC[C@@H](C)N(C1CC3(C1)CN(S(=O)(=O)c1ccccc1F)C3)C2=O [Example 370] | 8 nM
C[C@@H]1COc2nc(C(F)(F)F)ccc2C(=O)N1C1CC2(C1)CN(S(=O)(=O)c1ccccc1[N+](=O)[O-])C2 [Example 57] | 253 nM
CCCN(C(=O)c1ccnc2[nH]cnc12)C1CC2(C1)CN(S(=O)(=O)c1cc(C)ccc1F)C2 [Example 426] | 95 nM
C[C@@H]1CCn2c(cnc2Br)C(=O)N1C1CC2(C1)CN(S(=O)(=O)c1ccccc1F)C2 [Example 214] | 11 nM
C[C@@H]1COc2nn(C)cc2C(=O)N1C1CC2(C1)CN(S(=O)(=O)c1ccccc1F)C2 [Example 209] | 22 nM
CC1c2ccccc2C(=O)N1C1CC2(C1)CN(S(=O)(=O)c1ccccc1F)C2 (single isomer, unassigned) [Example 358] | 89 nM
C[C@@H]1CCNCC(=O)N1C1CC2(C1)CN(S(=O)(=O)c1ccccc1F)C2 [Example 442, (7R)-1-[2-(2-fluorophenyl)sulfonyl-2-azaspiro[3.3]heptan-6-yl]-7-methyl-1,4-diazepan-2-one] | 551 nM
C[C@@H]1COc2cc(N3CCCC3C(F)(F)F)ncc2C(=O)N1C1CC2(C1)CN(S(=O)(=O)c1ccccc1F)C2 (mixture of isomers) [Example 146] | 1 nM
CC1c2ccccc2OCC(=O)N1C1CC2(C1)CN(S(=O)(=O)c1ccccc1F)C2 (racemic) [Example 46] | 129 nM
C[C@@H]1COc2nn(C)c(Br)c2C(=O)N1C1CC2(C1)CN(S(=O)(=O)c1ccccc1F)C2 [Example 212] | 23 nM
C[C@@H]1COc2cc(C3CC3)ncc2C(=O)N1C1CC2(C1)CN(S(=O)(=O)c1ccccc1[N+](=O)[O-])C2 [Example 53] | 42 nM
C[C@@H]1CC[C@H](C)N(C2CC3(C2)CN(S(=O)(=O)c2ccccc2F)C3)C(=O)C1 (racemic) [Example 436, (4R*,7S*)-1-[2-(2-fluorophenyl)sulfonyl-2-azaspiro[3.3]heptan-6-yl]-4,7-dimethylazepan-2-one] | 33 nM
CCn1c2ccccc2c(=O)n1C1CC2(C1)CN(S(=O)(=O)c1ccccc1)C2 [Example 250, 2-[2-benzenesulfonyl-2-azaspiro[3.3]heptan-6-yl]-1-ethyl-indazol-3-one] | 214 nM
CC1c2ccccc2N(C)C(=O)CN1C1CC2(C1)CN(S(=O)(=O)c1ccccc1F)C2 (centres unmarked) [Example 248] | 731 nM
C[C@@H]1Cn2c(ccc2C(F)(F)F)C(=O)N1C1CC2(C1)CN(S(=O)(=O)c1ccccc1F)C2 [Example 345, (3R)-2-[2-(2-fluorophenyl)sulfonyl-2-azaspiro[3.3]heptan-6-yl]-3-methyl-6-(trifluoromethyl)-3,4-dihydropyrrolo[1,2-a]pyrazin-1-one] | 167 nM
C[C@@H]1CN(C(=O)c2ccccc2)c2cccnc2C(=O)N1C1CC2(C1)CN(S(=O)(=O)c1ccccc1F)C2 [Example 308] | 655 nM
CCCN(C(=O)c1cccnc1OC)C1CC2(C1)CN(S(=O)(=O)c1cc(C)ccc1F)C2 [Example 418] | 75 nM
Cc1nc2c(cc1F)C(=O)N(C1CC3(C1)CN(S(=O)(=O)c1ccccc1F)C3)[C@H](C)CO2 [Example 317] | 3 nM
Cc1onc2c1C=C[C@@H](C)N(C1CC3(C1)CN(S(=O)(=O)c1ccccc1F)C3)C2=O [Example 130] | 136 nM
